Read-outs that look alike come from different tables or passages of the source. Blank lines part the entries; values can stand above or below the compound they belong to. Residues, ends and D or L forms follow the SMILES beside them. *: point of attachment. Biotin = O=C1N[C@H]2[C@H](CS[C@H]2CCCCC(=O)*)N1
Experiments:
rhBMP-2 = molecular target: T1, rhBMP-2 (Homo sapiens, UniProt P12643); assay: BMP-2 peptide binding assay (biotinylated peptide immobilized on streptavidin plate, rhBMP-2 titrated)
T1 construct: purchased R&D Systems 355-BM/CF
T1 sequence (P12643 283-396): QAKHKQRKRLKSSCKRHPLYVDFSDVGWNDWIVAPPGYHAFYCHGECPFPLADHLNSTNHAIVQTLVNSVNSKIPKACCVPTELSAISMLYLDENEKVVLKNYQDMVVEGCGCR
From the text: To measure the ability of a BMP-binding peptide to capture its target growth factor out of buffer or a complex biological solution such as plasma, biotinylated peptides were immobilized onto a streptavidin-coated 96 well plate. Varying low nanomolar concentrations of BMP-2 were “spiked” into human plasma or Tris-buffered saline (0.5 M NaCl), 0.05% Tween-20 (TBST) and added to the peptide-containing plates. […] Adding p-NPP produced a colored reactant, which was quantified using a SpectroMax (Molecular Devices) plate reader at 405 nm.

rhBMP-6 = molecular target: T2, rhBMP-6 (Homo sapiens, UniProt P22004); assay: Peptide cross-reactivity to other growth factors; type: binding; conditions: Figure 5; growth factor titrated in TBST for 1 h on immobilized peptide; antibody and p-NPP detection; read-out: EC50, BMP-6
T2 sequence (P22004 375-513): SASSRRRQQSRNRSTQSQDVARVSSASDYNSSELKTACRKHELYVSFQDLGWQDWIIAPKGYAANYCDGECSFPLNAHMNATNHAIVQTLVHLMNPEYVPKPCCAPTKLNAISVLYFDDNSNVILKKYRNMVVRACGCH
Experimental: (§1) To measure the ability of a BMP-binding peptide to capture its target growth factor out of buffer or a complex biological solution such as plasma, biotinylated peptides were immobilized onto a streptavidin-coated 96 well plate. Varying low nanomolar concentrations of BMP-2 were “spiked” into human plasma or Tris-buffered saline (0.5 M NaCl), 0.05% Tween-20 (TBST) and added to the peptide-containing plates. After 1 hr incubation at room temperature (RT), plates were washed and incubated with an anti-BMP-2 antibody followed by a goat anti-mouse secondary antibody conjugated to alkaline phosphatase. Adding p-NPP produced a colored reactant, which was quantified using a SpectroMax (Molecular Devices) plate reader at 405 nm.
(§2) Figure 5 Peptide cross-reactivity to other growth factors. Peptides B-17 (A) and B-18 (B) were immobilized on a streptavidin-coated plate, and a range of concentrations of growth factors in the TGF-β superfamily were titrated onto the plate in TBST for 1 h. Growth factor binding was analyzed using antibody and p-NPP detection. […] Peptide B-17 also cross-reacted with rhBMP-3, rhBMP-5, and rhBMP-12. The peptides had lower affinities for all other growth factors tested. Data are presented as the absorbance read at 405 nm.

rhBMP-7 = molecular target: T3, rhBMP-7 (Homo sapiens, UniProt P18075); assay: Peptide cross-reactivity to other growth factors; type: binding; conditions: Figure 5; growth factor titrated in TBST for 1 h on immobilized peptide; antibody and p-NPP detection; read-out: EC50, BMP-7
T3 sequence (P18075 293-431): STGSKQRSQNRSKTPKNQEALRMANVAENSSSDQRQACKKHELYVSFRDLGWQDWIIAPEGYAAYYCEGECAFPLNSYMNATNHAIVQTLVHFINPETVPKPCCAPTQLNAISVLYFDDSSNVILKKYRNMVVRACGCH
Experimental: as §1, §2

[1] = molecular target: T4, rhBMP-2 binding to injectable collagen gel (Homo sapiens, UniProt P12643); assay: Injectable collagen gel binding assay; conditions: tested for the ability to bind BMP-2 to a collagen gel
T4 construct: purchased R&D Systems 355-BM/CF
T4 sequence (P12643 283-396): T1 sequence (P12643 283-396)
Experimental: The injectable collagen gel (0.1 mL) was aliquoted into a polypropylene plate. The plate was blocked with 150 µl of 1% BSA in TBS for 30 min. After spinning for 2 min, the supernatant was removed without disrupting the collagen gel. […] The wells were then washed, and an alkaline phosphatase labeled goat anti-mouse secondary antibody was added. After incubation and washing, binding was measured using the chromogenic reagent p-NPP, and absorbance was read at 405 nm.

ectopic bone formation = assay: In vivo ectopic bone formation study; parameters: species or system rat
Experimental: Male Sprague Dawley rats (150–175 g) were obtained from […], Charles River Laboratories (Raleigh, NC) and acclimated prior to surgery. The surgery was performed under general anesthesia by weight-adapted intraperitoneal injection of Xylazine 2% (Medistar; 12 mg/kg body weight) and Ketamine hydrochloride (Ketaset; 100 mg/mL; 80 mg/kg body weight). The thorax and abdomen were shaved and scrubbed with Betadine and alcohol. Using aseptic technique, two 5 mm incisions were made at the midline so that two subcutaneous pouches were prepared by blunt dissection. […] Each rat received two injections and a total of 20 animals were used in the study. […] In those experiments, rats were implanted with collagen gel containing either 1 or 5 μg of BMP-2.
The sites containing the injected material were explanted at two weeks and fixed in 10% neutral buffered formalin. The samples were placed in Formical 2000 decalcifier (American Mastertech) for 24 hours followed by Cal-arrest neutralizing solution for one hour. The tissue samples were processed in a Thermo-Electron, Shandon Excelsior Automated Tissue Processor for 14 hours. The process includes additional fixation in 10% buffered neutral formalin, dehydration through an ethanol gradient, and clearing with xylene at 40°C. Tissue was then embedded on a Leica EF 1140 H tissue embedding center in paraffin blocks for sectioning. Paraffin blocks were sectioned at 5 microns on a Reichert-Jung RM2065 microtome using Accu-Edge High Profile disposable stainless steel microtome blades. Three serial sections at intervals of 30 microns were obtained and placed on Super-frost Plus slides for hematoxylin and eosin staining (H&E). Staining was performed using a Sakura DRS-601 automatic slide stainer with a regressive Harris hematoxylin and Eosin Y Alcoholic for histological and morphological examination.
Histological sections were scored based on three criteria: Bone Cross-Sectional Area, Bone Maturity and Cellular Activity. Each segment was scored based on a 0–4 point scale by two observers (blinded to the study) who evaluated the entire implant under 10× magnification.

[2] = read-out: EC50 of BMP-2 binding to immobilized peptide
[3] = Figure 5, growth factor titrated in TBST for 1 h on immobilized peptide, antibody and p-NPP detection, read-out: EC50, BMP-2 (cross-reactivity experiment)
[4] = group median, 2 μg rhBMP-2 with 50-fold molar excess of peptide in collagen gel, rat, 2 weeks, p<.0001 vs no peptide

Compound: CC(C)C[C@H](NC(=O)[C@H](C)NC(=O)[C@H](CO)NC(=O)[C@H](Cc1ccccc1)NC(=O)[C@H](CO)NC(=O)[C@H](CO)NC(=O)[C@H](Cc1ccccc1)NC(=O)[C@H](C)NC(=O)[C@H](CO)NC(=O)[C@H](CC(=O)O)NC(=O)[C@H](CO)NC(=O)[C@@H](N)CO)C(=O)N[C@@H](CCC(=O)O)C(=O)NCC(=O)N[C@@H](CO)C(=O)N[C@H](C(=O)N[C@H](C(=O)O)C(C)C)C(C)C [Peptide B-6] (H-SSDSAFSSFSALEGSVV-OH)
EC50 (rhBMP-2): 1.4 nM

EC50 (rhBMP-2; [2]): 29 nM
Compound: CC(C)C[C@H](NC(=O)[C@H](C)NC(=O)[C@H](CO)NC(=O)[C@H](Cc1ccccc1)NC(=O)[C@H](CO)NC(=O)[C@@H](NC(=O)[C@H](Cc1c[nH]c2ccccc12)NC(=O)[C@H](C)NC(=O)CNC(=O)[C@H](C)NC(=O)[C@H](C)NC(=O)[C@H](C)NC(=O)[C@H](CCC(=O)O)NC(=O)CNC(=O)CN)C(C)C)C(=O)N[C@@H](CCC(=O)O)C(=O)N[C@@H](CO)C(=O)O [Peptide B-7] (H-GGEAAAGAWVSFSALES-OH)

EC50 (rhBMP-2; [2]): 5.4 nM
Compound: CC(C)C[C@H](NC(=O)[C@H](CO)NC(=O)[C@H](CO)NC(=O)[C@H](Cc1ccccc1)NC(=O)[C@@H](NC(=O)[C@H](CCC(=O)O)NC(=O)[C@@H](N)Cc1c[nH]c2ccccc12)C(C)C)C(=O)N[C@@H](CCC(=O)O)C(=O)N[C@@H](CO)C(=O)NCC(=O)N[C@@H](CO)C(=O)N[C@H](C(=O)NCC(=O)N[C@@H](C)C(=O)NCC(=O)N[C@@H](C)C(=O)NCC(=O)O)C(C)C [Peptide B-8] (H-WEVFSSLESGSVGAGAG-OH)

EC50 (rhBMP-2; [2]): 5.7 nM
Compound: CC(C)C[C@H](NC(=O)[C@@H]1CCCN1C(=O)[C@H](Cc1ccccc1)NC(=O)[C@H](CCCNC(=N)N)NC(=O)[C@H](CC(C)C)NC(=O)[C@@H]1CCCN1C(=O)[C@H](CCC(=O)O)NC(=O)[C@@H](N)Cc1ccccc1)C(=O)N[C@@H](CCCCN)C(=O)NCC(=O)N[C@H](C(=O)N1CCC[C@H]1C(=O)N[C@H](C(=O)O)C(C)C)C(C)C [Peptide B-9] (H-FEPLRFPLKGVPV-OH)

EC50 (rhBMP-2; [2]): 26 nM
Compound: CC(C)C[C@H](NC(=O)[C@H](CO)NC(=O)[C@H](CO)NC(=O)[C@H](Cc1ccccc1)NC(=O)[C@H](C)NC(=O)[C@H](CO)NC(=O)[C@H](Cc1ccccc1)NC(=O)[C@H](CO)NC(=O)CNC(=O)CNC(=O)[C@@H](N)CC(=O)O)C(=O)N[C@H](C(=O)N[C@@H](Cc1c[nH]c2ccccc12)C(=O)N[C@@H](C)C(=O)N[C@@H](C)C(=O)N[C@@H](CC(=O)O)C(=O)N[C@@H](CO)C(=O)O)C(C)C [Peptide B-10] (H-DGGSFSAFSSLVWAADS-OH)

EC50 (rhBMP-2; [2]): 327 nM
Compound: CC(C)C[C@H](NC(=O)[C@H](C)NC(=O)[C@H](CCC(=O)O)NC(=O)[C@H](Cc1ccccc1)NC(=O)[C@H](C)NC(=O)[C@H](CC(=O)O)NC(=O)[C@H](Cc1c[nH]c2ccccc12)NC(=O)[C@H](C)NC(=O)[C@H](CO)NC(=O)[C@H](C)NC(=O)[C@@H](NC(=O)[C@@H](NC(=O)CNC(=O)[C@H](Cc1c[nH]c2ccccc12)NC(=O)[C@@H](N)CC(=O)O)C(C)C)C(C)C)C(=O)N[C@@H](CC(=O)O)C(=O)N[C@@H](C)C(=O)O [Peptide B-11] (H-DWGVVASAWDAFEALDA-OH)

EC50 (rhBMP-2; [2]): 12 nM
Compound: CC(C)C[C@H](NC(=O)[C@H](CC(=O)O)NC(=O)[C@@H](NC(=O)[C@@H](N)CO)C(C)C)C(=O)N[C@@H](Cc1ccc(O)cc1)C(=O)N[C@@H](Cc1ccccc1)C(=O)N1CCC[C@H]1C(=O)N[C@@H](CC(C)C)C(=O)N[C@@H](CCCCN)C(=O)NCC(=O)N[C@@H](CC(=O)O)C(=O)N[C@H](C(=O)N[C@H](C(=O)O)C(C)C)C(C)C [Peptide B-12] (H-SVDLYFPLKGDVV-OH)

EC50 (rhBMP-2; [3]): 1.4 nM
EC50 (rhBMP-6): 1.3 nM
EC50 (rhBMP-7): 17 nM
Compound: CC(C)C[C@H](NC(=O)[C@H](CO)NC(=O)[C@H](CO)NC(=O)[C@H](Cc1ccccc1)NC(=O)[C@H](C)NC(=O)[C@H](CCC(=O)O)NC(=O)[C@H](Cc1c[nH]c2ccccc12)NC(=O)[C@H](C)NC(=O)CNC(=O)CNC(=O)CN)C(=O)N[C@@H](CO)C(=O)NCC(=O)N[C@@H](CO)C(=O)N[C@@H](CCCNC(=N)N)C(=O)N[C@H](C(=O)NCC(=O)N[C@@H](CO)C(=O)N[C@@H](CO)C(=O)NCC(=O)N[C@@H](CCCCNC(=O)CCCC[C@@H]1SC[C@@H]2NC(=O)N[C@@H]21)C(=O)O)C(C)C [Peptide B-17] (H-GGGAWEAFSSLSGSRVGSSGK(Biotin)-OH)

EC50 (rhBMP-2; [3]): 2.8 nM
EC50 (rhBMP-2; [2]): 1.9 nM
EC50 (rhBMP-6): 6.5 nM
EC50 (rhBMP-7): 16.2 nM
Compound: CC(C)C[C@H](NC(=O)[C@H](C)NC(=O)CNC(=O)CN)C(=O)NCC(=O)N[C@@H](Cc1ccccc1)C(=O)N1CCC[C@H]1C(=O)N[C@@H](CC(C)C)C(=O)N[C@@H](CCCCN)C(=O)NCC(=O)N[C@@H](CCC(=O)O)C(=O)N[C@H](C(=O)N[C@H](C(=O)N[C@@H](CCC(=O)O)C(=O)NCC(=O)N[C@@H](Cc1c[nH]c2ccccc12)C(=O)N[C@@H](C)C(=O)NCC(=O)N[C@@H](CO)C(=O)N[C@@H](CO)C(=O)NCC(=O)N[C@@H](CCCCNC(=O)CCCC[C@@H]1SC[C@@H]2NC(=O)N[C@@H]21)C(=O)O)C(C)C)C(C)C [Peptide B-18] (H-GGALGFPLKGEVVEGWAGSSGK(Biotin)-OH)

Binding of BMP-2 by bifunctional peptide [1]: bound BMP-2
Compound: SWWGFWNGSAAPVWSR-GSSG-AGALGFPLKGEVVEGWA-GSSGK(Biotin) [BC-2]

Binding of BMP-2 by bifunctional peptide [1]: bound BMP-2
Compound: SWWGFWNGSAAPVWSR-GSSG-AGAWEAFSSLSGSRV-GSSGK(Biotin) [BC-1]
Median histology score: Bone area (ectopic bone formation; [4]): 2.1 (26–35% of Implant Shows Evidence of Bone Formation)
Median histology score: Bone maturity (ectopic bone formation; [4]): 3.0
Median histology score: Osteogenic cellular activity (ectopic bone formation; [4]): 2.6
Bone formation in preliminary experiments (ectopic bone formation; rats implanted with collagen gel containing 1 or 5 μg of BMP-2, with or without peptide, data not shown): bone formation at both doses
